≈ marks a conversion by molar mass, not a printed value. Where two headings read alike, the source gives them in different places.
Experiments:
[1] = system: Pseudomonas aeruginosa PA01; assay: Serum MIC, broth micro-dilution; format: cell-based; conditions: Pseudomonas aeruginosa, read-out: P. aeruginosa 01 Serum MIC
Summary of the method: (§1)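 Plates held at 35 °C for 22 h after adding bacteria to a final OD600 of 0.0005. Medium was a 1:1 mix of mouse serum and cation-adjusted Mueller Hinton II broth. Ten two-fold compound dilutions began at 64, 4, 0.5 or 0.13 μg/mL, per CLSI microdilution.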

[2] = system: Escherichia coli strain ATCC 25922; assay: Serum MIC, broth micro-dilution; format: cell-based; conditions: Escherichia coli, read-out: E. coli 25922 Serum MIC
Summary of the method: as §1

[3] = system: Klebsiella pneumoniae ATCC 700603; assay: Serum MIC, broth micro-dilution; format: cell-based; conditions: Klebsiella pneumoniae, read-out: K pneumoniae 700603 Serum MIC
Summary of the method: as §1

[4] = system: Acinetobacter baumannii ATCC 17978; assay: Serum MIC, broth micro-dilution; format: cell-based; conditions: Acinetobacter baumannii
Summary of the method: as §1

[5] = system: isolated liver mitochondria; assay: Mitochondrial oxygen consumption rate (OCR) assay; format: biochemical, Sprague-Dawley rats; conditions: isolated rat liver mitochondria, state 3 (S3) respiration, glutamate/malate; Table 3
Text: Male Sprague-Dawley rats (8-10 weeks of age) were euthanized with an overdose of carbon dioxide. The liver was rapidly excised and placed in ice-cold phosphate-buffered saline (PBS) before isolation process. Mitochondria were isolated using the MitoCheck® Mitochondrial Isolation Kit (Cayman Chemical #701010, Ann Arbor, Mich.) according to manufacturer's instructions. In brief, approximately 10-14 grams of liver tissues were finely minced using a pair of scissors, and washed repeatedly with ice-cold PBS, followed by Mito Isolation Buffer. The minced tissues were homogenized with 30 ml Mito Homogenization Buffer in 40 ml dounce homogenizer and a smooth glass grinder. The homogenate was split into two clean 30 ml polycarbonate tubes and centrifuged at 1,000×g, 4° C., for 3 minutes. The supernatant was subjected to further centrifugation at 10,000×g, 4° C., for 10 minutes. The supernatant was discarded and mitochondrial pellet was suspended in Mito Isolation Buffer using a glass stirring rod and stored on ice until use. Protein concentration of mitochondria was determined using a bicinchoninic acid protein assay kit (Thermo Scientific, Waltham, Mass.).
Oxygen consumption was monitored as essentially described by Will et al., “Analysis of mitochondrial function using phosphorescent oxygen-sensitive probes,” Nature Protocols Vol. 1(6) (2006) 2563. Briefly, isolated mitochondria (50 μg mitochondrial proteins/state 3 (S3) of mitochondrial respiration for inhibitor identification, 100 μg/S2 for uncoupler identification) were incubated with compounds in 25 μl of Measurement Buffer (MB: 250 mM sucrose, 15 mM KCl, 1 mM EGTA, 5 mM MgCl2, 30 mM K2HPO4, pH 7.4) including 1% DMSO on ice for 1 hour, then mixed with 25 μl of substrate mixture including an oxygen-sensitive phosphorescent dye (MitoXpress Xtra, Agilent, Santa Clara, Calif.), glutamate (25 mM, G1626, Sigma, St. Louis, Mo.), malate (25 mM, M6413, Sigma), ADP (3.3 mM, A2754, Sigma, only for S3 of mitochondrial respiration), Fatty acid free BSA (0.1%, A0281, Sigma), and a complex II-specific inhibitor TTFA (2 μM, T27006, Sigma for the assessment of complex I-mitochondrial respiration with glutamate/malate) in a black wall/clear bottom 384-well plate. The mixtures were covered with HS mineral oil (Agilent) using the Viaflo 384-channel pipette (Integra, Hudson, N.H.). Oxygen consumption was measured for 30 min at 30° C. using a spectrofluorimeter (FLUOstar Omega, BMG Labtech, Cary, N.C.). In S3, DMSO vehicle control and antimycin A (10 μM) were used to define 0% and 100% inhibition. In S2, DMSO vehicle and FCCP (0.5-1 μM) was used to define 0% and 100% uncoupling, respectively. Area under curve typically in a range of 0-12 min (S3) or 0-24 min (S2) was used for calculations. IC50 or UC50 (uncoupling concentration), a concentration that causes 50% of inhibition or maximal (uncoupling) activation of oxygen consumption, was used to evaluate experimental quality. Data were presented as μM (per 50 μg (S3) or 100 μg (S2) mitochondrial proteins). Compounds with IC50: <100 μM (S3) and/or UC50: <200 μM (S2) were considered as high-risk on mitochondrial toxicity. Compounds with 25-50% changes in inhibition and/or uncoupling were categorized as medium-risk, since compounds with >25% changes are considered as responders.
Toxicity associated with mitochondrial dysfunction has presented a problem for promising potential antibiotics as we as other types of therapeutics. The mitochondrial oxygen consumption rate (OCR) assay is considered a reliable indicator of potential internal organ toxicity issues that may occur with powerful antibiotics. The carboxylate compounds of the invention show unexpected lower toxicity than prior art “glycine nitrile” arylomycin analogs (see, e.g., WO 2018/149419) in the mitochondrial oxygen consumption rate (OCR) assay.

[6] = PA01, 50% v/v mouse serum in Mueller Hinton II cation adjusted Broth, 35° C., 22 hours, Table 4
[7] = ATCC25922, 50% v/v mouse serum in Mueller Hinton II cation adjusted Broth, 35° C., 22 hours, Table 4
[8] = ATCC700603, 50% v/v mouse serum in Mueller Hinton II cation adjusted Broth, 35° C., 22 hours, Table 4
[9] = ATCC17978, 50% v/v mouse serum in Mueller Hinton II cation adjusted Broth, 35° C., 22 hours, Table 4, read-out: A. baumanii 17978 Serum MIC
[10] = ATCC17978, 50% v/v mouse serum in Mueller Hinton II cation adjusted Broth, 35° C., 22 hours, Table 5, read-out: Acinetobacter baumanii 17978 Serum MIC

`Cc1nc(-c2ccc(C(C)(C)C)cc2)ncc1C(=O)N[C@@H](CCN)C(=O)N(C)[C@@H]1C(=O)N[C@@H](C)C(=O)N[C@H](C(=O)O)Cc2ccc(OC[C@H](O)CN)c(c2)-c2cc1cc(OC[C@H](O)CN)c2O` [Example 23, (8S,11S,14S)-18-hydroxy-11-methyl-14-[methyl-[(2S)-4-amino-2-[[2-(4-tert-butylphenyl)-4-methyl-pyrimidine-5-carbonyl]amino]-butanoyl]amino]-10,13-dioxo-3,17-bis[(2R)-3-amino-2-hydroxy-propoxy]-9,12-diazatricyclo-[13.3.1.12,6]icosa-1(18),2(20),3,5,15(19), 16-hexaene-8-carboxylic acid] was tested, and the MIC [1, 6] was 16 µM (≈ 14.8 µg/mL), the MIC [2, 7] was 0.22 µM (≈ 0.204 µg/mL) and the MIC [3, 8] was 0.16 µM (≈ 0.148 µg/mL). It also gave an MIC [4, 9] of 8 µM (≈ 7.42 µg/mL), an MIC [4, 10] of 8 µM (≈ 7.42 µg/mL) and an IC50 [5] of 22 µM.
In the case of `Cc1nc(-c2ccc(C(C)(C)C)cc2)nc(N)c1C(=O)N[C@@H](CNS(N)(=O)=O)C(=O)N(C)[C@@H]1C(=O)N[C@@H](C)C(=O)N[C@H](C(=O)O)Cc2ccc(OC[C@@H](O)CN)c(c2)-c2cc1cc(OC[C@@H](O)CN)c2O` [Example 64, (8S,11S,14S)-14-[[(2S)-2-[[4-amino-2-(4-tert-butylphenyl)-6-methyl-pyrimidine-5-carbonyl]amino]-3-(sulfamoylamino)-propanoyl]-methyl-amino]-3,17-bis[(2S)-3-amino-2-hydroxy-propoxy]-18-hydroxy-11-methyl-10,13-dioxo-9,12-diazatri-cyclo[13.3.1.12,6]icosa-1(18),2(20),3,5,15(19), 16-hexaene-8-carboxylic acid], the MIC [1, 6] is reported as 4 µM (≈ 4.03 µg/mL), the MIC [2, 7] is reported as 0.5 µM (≈ 0.504 µg/mL) and the MIC [3, 8] is reported as 0.5 µM (≈ 0.504 µg/mL). The MIC [4, 9] was 8 µM (≈ 8.06 µg/mL), the MIC [4, 10] was 8 µM (≈ 8.06 µg/mL) and the IC50 [5] was greater than 100 µM.
Work on `Cc1nc(-c2ccc(C(C)(C)C)cc2)nc(CN)c1C(=O)N[C@@H](CNS(N)(=O)=O)C(=O)N(C)[C@@H]1C(=O)N[C@@H](C)C(=O)N[C@H](C(=O)O)Cc2ccc(OC[C@H](O)CN)c(c2)-c2cc1cc(OC[C@H](O)CN)c2O` [Example 72, (8S,11S,14S)-3,17-bis[(2R)-3-amino-2-hydroxy-propoxy]-14-[[(2S)-2-[[4-(amino-methyl)-2-(4-tert-butylphenyl)-6-methyl-pyrimidine-5-carbonyl]amino]-3-(sulfamoylamino)-propanoyl]-methyl-amino]-18-hydroxy-11-methyl-10,13-dioxo-9,12-diazatri-cyclo[13.3.1.12,6]icosa-1(18),2(20),3,5,15(19), 16-hexaene-8-carboxylic acid] yielded an MIC [1, 6] of 8 µM (≈ 8.18 µg/mL), an MIC [2, 7] of 0.5 µM (≈ 0.511 µg/mL) and an MIC [3, 8] of 0.31 µM (≈ 0.317 µg/mL). It also gave an MIC [4, 9] of 14 µM (≈ 14.3 µg/mL), an MIC [4, 10] of 14 µM (≈ 14.3 µg/mL) and an IC50 [5] greater than 200 µM.
Work on `Cc1nc(-c2ccc(C(C)(C)C)cc2O)nc(N)c1C(=O)N[C@@H](CNS(N)(=O)=O)C(=O)N(C)[C@@H]1C(=O)N[C@@H](C)C(=O)N[C@H](C(=O)O)Cc2ccc(OC[C@H](O)CN)c(c2)-c2cc1cc(OC[C@H](O)CN)c2O` [Example 44, (8S,11S,14S)-14-[[(2S)-2-[[4-amino-2-(4-tert-butyl-2-hydroxy-phenyl)-6-methyl-pyrimidine-5-carbonyl]amino]-3-(sulfamoylamino)-propanoyl]-methyl-amino]-3,17-bis[(2R)-3-amino-2-hydroxy-propoxy]-18-hydroxy-11-methyl-10,13-dioxo-9,12-diazatricyclo-[13.3.1.12,6]icosa-1(18),2(20),3,5,15(19), 16-hexaene-8-carboxylic acid] yielded an MIC [1, 6] of 4 µM (≈ 4.1 µg/mL), an MIC [2, 7] of 0.5 µM (≈ 0.512 µg/mL) and an MIC [3, 8] of 0.5 µM (≈ 0.512 µg/mL). For the same compound, the MIC [4, 9] was 8 µM (≈ 8.19 µg/mL), the MIC [4, 10] was 8 µM (≈ 8.19 µg/mL) and the IC50 [5] was 44 µM.
`Cc1nc(-c2ccc(C(C)(C)C)cc2O)nc(N)c1C(=O)N[C@@H](CCN)C(=O)N(C)[C@@H]1C(=O)N[C@@H](C)C(=O)N[C@H](C(=O)O)Cc2ccc(OC[C@H](O)CN)c(c2)-c2cc1cc(OC[C@H](O)CN)c2O` [Example 43, (8S,11S,14S)-14-[[(2S)-4-amino-2-[[4-amino-2-(4-tert-butyl-2-hydroxy-phenyl)-6-methyl-pyrimidine-5-carbonyl]amino]-butanoyl]-methyl-amino]-3,17-bis[(2R)-3-amino-2-hydroxy-propoxy]-18-hydroxy-11-methyl-10,13-dioxo-9,12-diazatricyclo-[13.3.1.12,6]icosa-1(19),2(20),3,5,15,17-hexaene-8-carboxylic acid] showed an MIC [1, 6] of 8 µM (≈ 7.67 µg/mL), an MIC [2, 7] of 0.25 µM (≈ 0.24 µg/mL) and an MIC [3, 8] of 0.25 µM (≈ 0.24 µg/mL). It also gave an MIC [4, 9] of 8 µM (≈ 7.67 µg/mL), an MIC [4, 10] of 8 µM (≈ 7.67 µg/mL) and an IC50 [5] greater than 100 µM.
`C[C@@H]1NC(=O)[C@@H](N(C)C(=O)[C@H](CNS(N)(=O)=O)NC(=O)c2c(N)nc(-c3ccc(C(C)(C)C)cc3)nc2C(F)F)c2cc(OC[C@H](O)CN)c(O)c(c2)-c2cc(ccc2OC[C@H](O)CN)C[C@@H](C(=O)O)NC1=O` [Example 69, (8S,11S,14S)-14-[[(2S)-2-[[4-amino-2-(4-tert-butylphenyl)-6-(difluoromethyl)-pyrimidine-5-carbonyl]amino]-3-(sulfamoylamino)-propanoyl]-methyl-amino]-3,17-bis[(2R)-3-amino-2-hydroxy-propoxy]-18-hydroxy-11-methyl-10,13-dioxo-9,12-diazatri-cyclo[13.3.1.12,6]icosa-1(18),2(20),3,5,15(19), 16-hexaene-8-carboxylic acid] gave an MIC [1, 6] of 6 µM (≈ 6.26 µg/mL), an MIC [2, 7] of 0.25 µM (≈ 0.261 µg/mL) and an MIC [3, 8] of 0.38 µM (≈ 0.397 µg/mL). It also gave an MIC [4, 9] of 4 µM (≈ 4.18 µg/mL), an MIC [4, 10] of 4 µM (≈ 4.18 µg/mL) and an IC50 [5] of 44 µM.
In the case of `Cc1nc(-c2ccc(OCCC(C)(C)C)cc2)ncc1C(=O)N[C@@H](CNS(N)(=O)=O)C(=O)N(C)[C@@H]1C(=O)N[C@@H](C)C(=O)N[C@H](C(=O)O)Cc2ccc(OC[C@H](O)CN)c(c2)-c2cc1cc(OC[C@H](O)CN)c2O` [Example 16, (8S,11S,14S)-18-hydroxy-11-methyl-14-[methyl-[(2S)-2-[[2-[4-(3,3-dimethyl-butoxy)phenyl]-4-methyl-pyrimidine-5-carbonyl]amino]-3-(sulfamoylamino)-propanoyl]amino]-10,13-dioxo-3,17-bis[(2R)-3-amino-2-hydroxy-propoxy]-9,12-diazatricyclo-[13.3.1.12,6]icosa-1(18),2(20),3,5,15(19), 16-hexaene-8-carboxylic acid], the MIC ([1]; PA01, 22 h) is reported as 6 µM (≈ 6.22 µg/mL), the MIC ([2]; ATCC25922, 22 h) is reported as 0.44 µM (≈ 0.456 µg/mL) and the MIC ([3]; ATCC700603, 22 h) is reported as 0.63 µM (≈ 0.653 µg/mL). It also gave an MIC ([4]; ATCC17978, 22 h, read-out: A. baumanii 17978 Serum MIC) of 12 µM (≈ 12.4 µg/mL), an MIC ([4]; ATCC17978, 22 h, read-out: Acinetobacter baumanii 17978 Serum MIC) of 12 µM (≈ 12.4 µg/mL) and an IC50 [5] of 33 µM.

Source: patent US11208387B2, “Macrocyclic broad spectrum antibiotics” (Genentech, Inc., priority 2019, dated 2021)
